Results published in patent US12162819B2, “Ionizable lipid compounds” (Beijing Jitai Pharmaceutical Technology Co., Ltd., priority 2022, dated 2024).

Experiments:
[1] = Particle size and PDI of lipid nanoparticles by dynamic light scattering; type: physicochemical; conditions: lipid nanoparticle with the cationic lipid, cholesterol, DSPC, DMG-PEG2000 (50/38.5/10/1.5 mol%), luciferase mRNA, N/P 6
Procedure: (§1) Lipid nanoparticles were prepared by (1) dissolving and mixing ionizable lipid compounds, cholesterol, phospholipids and polyethylene glycolated lipids in ethanol at (molar percentages) 50%, 38.5%, 10% and 1.5%, respectively; (2) dissolving the mRNA active ingredient in 25 mM sodium acetate solution (pH=4.5); (3) using an automated high-throughput microfluidic system to mix the organic phase containing the lipid mixture and the aqueous phase containing the mRNA component in the flow ratio range of 1:1 to 1:4 at a mixing speed of 10 mL/min to 18 mL/min; (4) the prepared lipid nanoparticles (N/P ratio of 6) were diluted with phosphate buffer solution and the nanoparticle solutions were ultrafiltered to the original preparation volume using ultrafiltration tubes (purchased from Millipore) with a cut-off molecular weight of 30 kDa; and (5) the obtained nanoparticles were filtered through a sterile 0.2 μm filter membrane and then stored in a sealed glass vial at low temperature.
(§2) The particle size and particle size dispersity index (PDI) of the prepared lipid nanoparticles were measured using a Zetasizer Pro (purchased from Malvern Instruments Ltd) and a DynaPro NanoStar (purchased from Wyatt) dynamic light scattering instrument. The degree of RNA encapsulation by lipid nanoparticles was characterized by the Encapsulation Efficiency %, which reflects the degree of binding of lipid nanoparticles to RNA fragments. This parameter was measured by the method of Quant-It™ RiboGreen RNA Assay (purchased from Invitrogen). Lipid nanoparticle samples were diluted in TE buffer (10 mM Tris-HCl, 1 mM EDTA, pH=7.5). A portion of the sample solution was removed, to which 0.5% Triton (Triton X-100) was added, and then allowed to stand at 37° C. for 30 minutes. Immediately after the addition of RIBOGREEN® reaction solution, the fluorescence values were read on a Varioskan LUX multifunctional microplate reader (purchased from Thermofisher) at 485 nm for absorption and 528 nm for emission to give the encapsulation efficiency values.

[2] = tested on: human embryonic kidney cells 293 (HEKi293T cells); test: In vitro delivery of luciferase mRNA nanoparticles, luciferase expression (RLU); type: cell-based; conditions: HEK293T cells, LNP with luciferase mRNA, 24 h
Procedure: as §1
(§3) The delivery effect and safety of nanoparticles encapsulated with luciferase mRNA were evaluated at the cellular level in vitro. The cells used in the assay were human embryonic kidney cells 293 (HEKi293T cells) cultured in DMEM (Dulbecco's Modified Eagle Medium) (purchased from Thermo Fisher) containing […] fetal bovine serum and […] penicillin-streptomycin double antibiotics at a indoor temperature of 37° C. and a CO2 concentration of […]. The cells were uniformly dispersed and spread in 48-well plates, and incubated in the incubator for 24 h. Then a solution of the lipid nanoparticles encapsulated with luciferase mRNA were added. After 24 h, the cells were lysed, and the intracellular expression intensity and relative light units (RLU) of luciferase in each type of lipid nanoparticles were measured with a luciferase detection reagent (purchased from Promega). The higher the intensity of expression, the higher the delivery efficiency of the lipid material at the cellular level. Meanwhile, CCK-8 reagent (purchased from DOJINDO) was used in cytotoxicity testing for the parallel lipid nanoparticle-treated cell groups after 24 hours. In the test, the group of cells to which only PBS was added was used as a negative control. The procedure was as follows: after the addition of CCK-8 solution, the cells were left to stand in an incubator at 37° C. for 4 h. The absorbance values were read on a multifunctional microplate reader at an absorbance band of 450 nm. The ratio of the absorbance value of the nanoparticle-treated cells to that of the negative control was used as a characterization parameter for cell viability.

[3] = tested on: human embryonic kidney cells 293 (HEKi293T cells); test: CCK-8 cytotoxicity testing of lipid nanoparticle-treated cells; type: cell-based; design: concentration or dose not given beside the values; conditions: HEK293T cells, LNP-treated 24 h, CCK-8, ratio to PBS negative control
Procedure: as §1, §3

[4] = Encapsulation efficiency of lipid nanoparticles, Quant-It RiboGreen RNA Assay; type: physicochemical; conditions: lipid nanoparticle with the cationic lipid, luciferase mRNA
Procedure: as §1, §2

C57BL/6 mice = test: In vivo bioluminescence assay of lipid nanoparticles encapsulated with luciferase mRNA in mice; conditions: C57BL/6 mice, intravenous, single dose 0.5 mg/kg luciferase mRNA in LNP, 6 h after administration, group mean
Procedure: as §1
The delivery effect and safety of nanoparticles encapsulated with luciferase mRNA (Trilink, L-7202) in mice were evaluated. The test mice were SPF-grade C57BL/6 mice, female, 6-8 weeks old, weighing 18-22 g, and were purchased from SPF (Beijing) Biotechnology Co., Ltd. All animals were acclimatized for more than 7 days prior to the experiment, and had free access to food and water during the experiment. The conditions include alternating light and dark for 12/12 h, the indoor temperature of 20-26° C. and the humidity of 40-70%. The mice were randomly grouped. The lipid nanoparticles encapsulated with luciferase mRNA prepared above were injected into mice by intravenous administration at a single dose of 0.5 mg/kg mRNA, and the mice were subjected to in vivo bioluminescence assay using a Small Animal In Vivo Imaging System (IVIS LUMINA III, purchased from PerkinElmer) at 6 h after administration. The assay was performed as follows: D-luciferin solution was prepared in saline at a concentration of 15 mg/mL, and each mouse was given the substrate by intraperitoneal injection. At ten minutes after administration of the substrate, the mice were anesthetized in an anesthesia chamber with isoflurane at a concentration of 2.5%. The anesthetized mice were placed in IVIS for fluorescence imaging, and data acquisition and analysis were performed on the concentrated distribution area of fluorescence.
The in vivo delivery efficiency of lipid nanoparticle carriers was expressed as the mean values of fluorescence intensity and total photon count in different animals within the same subject group, as shown in Table 5. Higher values of fluorescence intensity and total photon count indicate higher in vivo delivery efficiency of this mRNA fragment by lipid nanoparticles. The lipid nanoparticles containing the cationic lipids of the present disclosure have good in vivo delivery efficiency.

Row | Particle size (nm) [1] | Particle size dispersity (PDI) [1] | Encapsulation efficiency (%) [4] | SMILES | Luciferase luminescence (RLU) [2] | Cell viability (%) [3] | Total photon count in vivo at 6 hours after administration (Total Flux) (C57BL/6 mice)
1 | 116.61 nm | 0.07 | 99.02% | CCCCCCCCCOC(=O)C(C)(C)CCCCCC(CCCCCC(C)(C)C(=O)OCCCCCCCCC)OC(=O)CCCCCN(C)C [Compound 32] | 6.99E+06 RLU | 96.25% | –
2 | 92.18 nm | 0.03 | 89.07% | CCCCCCCCCSC(=O)C(C)(C)CCCCCC(CCCCCC(C)(C)C(=O)SCCCCCCCCC)OC(=O)CCCN(C)C [Compound 37] | 1.04E+07 RLU | 97.48% | –
3 | 104.27 nm | 0.05 | 93.91% | CCCCCCCCCOC(=O)C(C)(C)CCCCCC(CCCCCC(C)(C)C(=O)SCCCCCCCCC)OC(=O)CCCN(C)C (centres unmarked) [Compound 41] | 1.23E+07 RLU | 104.91% | –
4 | 118.19 nm | 0.07 | 83.29% | CCCCCCCCOC(=O)C(C)(C)CCCCCC(CCCCCC(C)(C)C(=O)OCCCCCCCC)OC(=O)C1CCN(C)CC1 [Compound 100] | 1.98E+06 RLU | 104.67% | –
5 | 96.83 nm | 0.04 | 95.62% | CCCCC/C=C\C/C=C\CCCCCCCCC(CCCCCCCC/C=C\C/C=C\CCCCC)OC(=O)CCCN(C)C [DLin-MC3-DMA, reference compound] | 2.95E+06 RLU | 97.84% | –

Row | SMILES | Particle size (nm) [1] | Particle size dispersity (PDI) [1] | Encapsulation efficiency (%) [4] | Luciferase luminescence (RLU) [2] | Cell viability (%) [3] | Total photon count in vivo at 6 hours after administration (Total Flux) (C57BL/6 mice)
6 | CC(C)CCCCCCCOC(=O)CCC(C)(C)CCCC(CCCC(C)(C)CCC(=O)OCCCCCCCC(C)C)OC(=O)CCCN(C)C [Compound 127] | 83.01 nm | 0.05 | 62.35% | – | – | 3.59E+10
